Drawing on ChEMBL document CHEMBL1157372, “gyrA and parC Mutations and associated quinolone resistance in Vibrio anguillarum serotype O2b strains isolated from farmed Atlantic cod (Gadus morhua) in Norway” (2007), this text covers MIC and zone of inhibition for four molecules.

Broadly, the MIC is the lowest concentration that inhibits growth of the organism. A higher MIC goes with a less susceptible organism.

Structures are written as SMILES. ≈ marks a conversion by molar mass, not a printed value.

What all share (assay type): functional
The subject of assay [1] is Vibrio anguillarum. Description: Antimicrobial activity against Vibrio anguillarum serotype O2b 04/09/367-5043 isolate containing gyrA position 83 Ser-Ile substitution mutation from Atlantic cod after 5 days by microplate broth dilution method. The following applies: 120 h.
Assay [2] concerns Vibrio anguillarum. Description: Antimicrobial activity against Vibrio anguillarum serotype O2b 04/09/367-5042 isolate containing gyrA and parC quinolone resistance mutations from Atlantic cod after 5 days by microplate broth dilution method. The following applies: 120 h. Background: In broth dilution the organism is exposed to a series of concentrations in liquid medium.
Assay [3] has as its system Vibrio anguillarum. Description: Antimicrobial activity against Vibrio anguillarum serotype O2b 04/09/422-5063 isolate containing gyrA and parC quinolone resistance mutations from Atlantic cod after 5 days by microplate broth dilution method. The following applies: 120 h.
In assay [4] the test system is Vibrio anguillarum. Description: Antimicrobial activity against Vibrio anguillarum serotype O2b 04/09/363-5036 isolate containing gyrA and parC quinolone resistance mutations from Atlantic cod after 5 days by microplate broth dilution method. The following applies: 120 h.
Assay [5] has as its system Vibrio anguillarum. Description: Antimicrobial activity against Vibrio anguillarum serotype O2b 04/09/494-5106 isolate containing parC position 83 Ser-Ile substitution mutation from Atlantic cod after 5 days by microplate broth dilution method. The following applies: 120 h.
Assay [6] has as its system Vibrio anguillarum. Description: Antimicrobial activity against Vibrio anguillarum serotype O2b 04/09/363-5034 isolate containing gyrA and parC quinolone resistance mutations from Atlantic cod after 5 days by microplate broth dilution method. The following applies: 120 h.
In assay [7] the test system is Vibrio anguillarum. Description: Antimicrobial activity against Vibrio anguillarum serotype O2b 04/09/363-5036 isolate containing gyrA and parC quinolone resistance mutations from Atlantic cod at 30 ug by disc diffusion assay. The following applies: read-out: IZ.
The test system of assay [8] is Vibrio anguillarum. Description: Antimicrobial activity against Vibrio anguillarum serotype O2b 04/09/494-5106 isolate containing parC position 83 Ser-Ile substitution mutation from Atlantic cod at 30 ug by disc diffusion assay. The following applies: read-out: IZ. On the technique in general: In agar diffusion tests the substance spreads into inoculated agar from a disc or well.

The test system of assay [9] is Vibrio anguillarum. Description: Antimicrobial activity against Vibrio anguillarum serotype O2b 04/09/363-5034 isolate containing gyrA and parC quinolone resistance mutations from Atlantic cod at 30 ug by disc diffusion assay. The following applies: read-out: IZ.
Assay [10] has as its system Vibrio anguillarum. Description: Antimicrobial activity against Vibrio anguillarum serotype O2b 04/09/367-5042 isolate containing gyrA and parC quinolone resistance mutations from Atlantic cod at 30 ug by disc diffusion assay. The following applies: read-out: IZ.
The subject of assay [11] is Vibrio anguillarum. Description: Antimicrobial activity against Vibrio anguillarum serotype O2b 04/09/422-5063 isolate containing gyrA and parC quinolone resistance mutations from Atlantic cod at 30 ug by disc diffusion assay. The following applies: read-out: IZ.
In assay [12] the test system is Vibrio anguillarum. Description: Antimicrobial activity against Vibrio anguillarum serotype O2b 04/09/367-5043 isolate containing gyrA position 83 Ser-Ile substitution mutation from Atlantic cod at 30 ug by disc diffusion assay. The following applies: read-out: IZ.
Assay [13] has as its system Vibrio anguillarum. Description: Antimicrobial activity against Vibrio anguillarum BAF33487 containing parC position 90 Glu-Gly substitution mutation.

In the case of `CCN1CCN(c2cc3c(cc2F)c(=O)c(C(=O)O)cn3C2CC2)CC1` [ENROFLOXACIN], the MIC in assay [1] was 0.25 µg/mL (≈ 0.696 µM); in [2], 0.25 µg/mL (≈ 0.696 µM); in assay [3], 0.5 µg/mL (≈ 1.39 µM); in [4], at most 0.03 µg/mL; in assay [5], 1 µg/mL (≈ 2.78 µM); in [6], at most 0.03 µg/mL.

As for `CC1CCc2cc(F)cc3c(=O)c(C(=O)O)cn1c23` (stereo not given) [FLUMEQUINE], the zone of inhibition at 30 µg/disc in [7] came to 52 mm; in [8], 17 mm; in [9], 54 mm; in assay [10], 36 mm; in assay [11], 37 mm; in assay [12] it was 37 mm.

For `CCn1cc(C(=O)O)c(=O)c2ccc(C)nc21` [NALIDIXIC ACID], the minimum inhibitory concentration (MIC) in [1] is 8 µg/mL (≈ 34.4 µM); in assay [2] it was 16 µg/mL (≈ 68.9 µM); in [3], 16 µg/mL (≈ 68.9 µM); in assay [4], at most 1 µg/mL; in assay [5], over 128 µg/mL; in assay [6] it was at most 1 µg/mL.

Consider `CCn1cc(C(=O)O)c(=O)c2cc3c(cc21)OCO3` [OXOLINIC ACID], for which the MIC in assay [1] is 0.06 µg/mL (≈ 0.23 µM); in assay [2], 0.06 µg/mL (≈ 0.23 µM); in assay [13], 6.25 µg/mL (≈ 23.9 µM); in assay [3] it was 0.06 µg/mL (≈ 0.23 µM); in assay [4], at most 0.0001 µg/mL; in assay [5] it was 16 µg/mL (≈ 61.2 µM). Besides, the zone of inhibition at 30 µg/disc worked out at 47 mm in assay [7]; 0 mm in [8]; 49 mm in assay [9]; 27 mm in assay [10]; 30 mm in [11]; 28 mm in assay [12].
